Here are results for 22 molecules from patent US8394789B2, “(Dihydro)pyrrolo[2,1-α]isoquinolines” (MSD Oss B.V., priority 2008, dated 2013).

In general, EC50 refers to the concentration giving half of the maximal effect. Read a high EC50 as lower potency in that assay.

The target in this assay is T1, human FSH receptor (Homo sapiens, UniProt P23945).
T1 construct: expressed in transfected cells
T1 sequence (P23945 18-695): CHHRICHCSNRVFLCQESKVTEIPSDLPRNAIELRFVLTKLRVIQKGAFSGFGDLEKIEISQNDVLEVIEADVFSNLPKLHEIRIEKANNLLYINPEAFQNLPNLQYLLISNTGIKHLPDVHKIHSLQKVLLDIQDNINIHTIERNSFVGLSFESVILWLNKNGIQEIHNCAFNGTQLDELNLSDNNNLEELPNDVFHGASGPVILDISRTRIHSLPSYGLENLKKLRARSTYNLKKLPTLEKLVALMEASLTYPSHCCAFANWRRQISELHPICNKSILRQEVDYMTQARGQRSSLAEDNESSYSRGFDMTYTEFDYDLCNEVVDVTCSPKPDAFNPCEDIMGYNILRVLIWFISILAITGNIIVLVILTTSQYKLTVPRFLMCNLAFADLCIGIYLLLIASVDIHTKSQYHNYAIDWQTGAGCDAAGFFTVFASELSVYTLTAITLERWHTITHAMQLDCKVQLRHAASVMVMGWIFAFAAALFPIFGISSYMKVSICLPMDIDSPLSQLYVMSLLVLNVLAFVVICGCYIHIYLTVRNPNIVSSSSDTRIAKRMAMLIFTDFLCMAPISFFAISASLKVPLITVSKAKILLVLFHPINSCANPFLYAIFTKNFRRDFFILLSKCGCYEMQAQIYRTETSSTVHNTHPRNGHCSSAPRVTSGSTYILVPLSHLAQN
Briefly: hFSHRago (CHO luc): agonistic activity at the human FSH receptor expressed in CHO cells, CRE-luciferase reporter. The class given is cell-based. Particulars: CHO cells stably transfected with human FSH receptor and CRE/luciferase reporter; 4 hours of incubation.
Molecule `COc1cc2c(cc1OC(C)C)-c1c(-c3ccccn3)cc(C(=O)N3CCCN(C(=O)c4ccccn4)CC3)n1CC2` [Example 35, (9-Isopropoxy-8-methoxy-1-pyridin-2-yl-5,6-dihydro-pyrrolo[2,1-α]isoquinolin-3-yl)-[4-(pyridine-2-carbonyl)-[1,4]diazepan-1-yl]-methanone; trifluoro acetic acid] came in with an EC50 of 244 nM.

`COc1cc2ccn3c(C(=O)N(C)C(C)(C)C)cc(-c4cccs4)c3c2cc1OCCO` [Example 36, 9-(2-Hydroxy-ethoxy)-8-methoxy-1-thiophen-2-yl-pyrrolo[2,1-α]isoquinoline-3-carboxylic acid tert-butyl-methyl-amide] returned an EC50 of 2.5 nM.

Molecule `COc1cc2c(cc1OC(C)C)-c1c(Br)cc(C(=O)N(C)C(C)(C)C)n1CC2` [Example 37c, 1-Bromo-9-isopropoxy-8-methoxy-5,6-dihydro-pyrrolo[2,1-α]isoquinoline-3-carboxylic acid tert-butyl-methyl-amide] returned an EC50 of 234 nM.

The molecule `COc1cc2c(cc1OC(C)C)-c1c(C#N)cc(C(=O)N(C)C(C)(C)C)n1CC2` [Example 37d, 1-Cyano-9-isopropoxy-8-methoxy-5,6-dihydro-pyrrolo[2,1-α]isoquinoline-3-carboxylic acid tert-butyl-methyl-amide] gave an EC50 of 67.1 nM.

For the molecule `COc1cc2c(cc1OC(C)C)-c1c(-c3nnn[nH]3)cc(C(=O)N(C)C(C)(C)C)n1CC2` [Example 38, 9-Isopropoxy-8-methoxy-1-(1H-tetrazol-5-yl)-5,6-dihydro-pyrrolo[2,1-α]isoquinoline-3-carboxylic acid tert-butyl-methyl-amide], a half-maximal response (EC50) required 1640 nM.

The molecule `COc1cc2c(cc1OC(C)C)-c1c(-c3cccs3)c(C=O)c(C(=O)N(C)C(C)(C)C)n1CC2` [Example 39, 2-Formyl-9-isopropoxy-8-methoxy-1-thiophen-2-yl-5,6-dihydro-pyrrolo[2,1-α]isoquinoline-3-carboxylic acid tert-butyl-methyl-amide] showed an EC50 of 2.7 nM.

`COc1cc2c(cc1OC(C)C)-c1c(-c3cccs3)c(CO)c(C(=O)N(C)C(C)(C)C)n1CC2` [Example 40, 2-Hydroxymethyl-9-isopropoxy-8-methoxy-1-thiophen-2-yl-5,6-dihydro-pyrrolo[2,1-α]isoquinoline-3-carboxylic acid tert-butyl-methyl-amide] displayed an EC50 of 8.8 nM.

`COCc1c(-c2cccs2)c2n(c1C(=O)N(C)C(C)(C)C)CCc1cc(OC)c(OC(C)C)cc1-2` [Example 41, 9-Isopropoxy-8-methoxy-2-methoxymethyl-1-thiophen-2-yl-5,6-dihydro-pyrrolo[2,1-α]isoquinoline-3-carboxylic acid tert-butyl-methyl-amide] yielded an EC50 of 2.8 nM.

For the molecule `COc1cc2c(cc1OC(C)C)-c1c(-c3cccs3)c(C=NO)c(C(=O)N(C)C(C)(C)C)n1CC2` [Example 42, 2-(Hydroxyimino-methyl)-9-isopropoxy-8-methoxy-1-thiophen-2-yl-5,6-dihydro-pyrrolo[2,1-α]isoquinoline-3-carboxylic acid tert-butyl-methyl-amide], the response was half-maximal at 1.2 nM (EC50).

Regarding `CON=Cc1c(-c2cccs2)c2n(c1C(=O)N(C)C(C)(C)C)CCc1cc(OC)c(OC(C)C)cc1-2` [Example 43, 9-Isopropoxy-8-methoxy-2-(methoxyimino-methyl)-1-thiophen-2-yl-5,6-dihydro-pyrrolo[2,1-α]isoquinoline-3-carboxylic acid tert-butyl-methyl-amide], the EC50 came to 4.3 nM.

The molecule `COc1cc2c(cc1OC(C)C)-c1c(-c3cccs3)cc(C(=O)CC(C)(C)C)n1CC2` [Example 45] came in with an EC50 of 65.1 nM.

Molecule `COc1cc2c(cc1OC(C)C)-c1c(-c3cccs3)cc(C(=O)C3CCCC3)n1CC2` [Example 46, Cyclopentyl-(9-isopropoxy-8-methoxy-1-thiophen-2-yl-5,6,6a,10a-tetrahydro-pyrrolo[2,1-α]isoquinolin-3-yl)-methanone] gave an EC50 of 78.2 nM.

Consider `COc1cc2c(cc1OC(C)C)-c1c(-c3cccs3)cc(C(=O)C(C)N(C)C)n1CC2` (stereo not drawn) [Example 47, 2-Dimethylamino-1-(9-isopropoxy-8-methoxy-1-thiophen-2-yl-5,6-dihydro-pyrrolo[2,1-α]isoquinolin-3-yl)-propan-1-one], for which it took 149 nM to reach a half-maximal effect (EC50).

Molecule `COc1cc2c(cc1OC(C)C)-c1c(-c3cccs3)cc(C(=O)C(C)N3CCOCC3)n1CC2` (stereo not drawn) [Example 48, 1-(9-Isopropoxy-8-methoxy-1-thiophen-2-yl-5,6-dihydro-pyrrolo[2,1-α]isoquinolin-3-yl)-2-morpholin-4-yl-propan-1-one] showed an EC50 of 89.4 nM.

In the case of `COc1cc2c(cc1OC(C)C)-c1c(-c3cccs3)cc(C(=O)C(C)N3CCCN(C(C)=O)CC3)n1CC2` (stereo not drawn) [Example 49, 2-(4-Acetyl-[1,4]diazepan-1-yl)-1-(9-isopropoxy-8-methoxy-1-thiophen-2-yl-5,6-dihydro-pyrrolo[2,1-α]isoquinolin-3-yl)-propan-1-one], the EC50 came to 200 nM.

For the molecule `COc1cc2c(cc1OC(C)C)-c1c(C3CCCC3)cc(C(=O)NC(C)(C)C)n1CC2` [Example 50, 1-Cyclopentyl-9-isopropoxy-8-methoxy-5,6-dihydro-pyrrolo[2,1-α]isoquinoline-3-tert-butylamide], it took 220 nM to reach a half-maximal effect (EC50).

Consider `COc1cc2c(cc1NC(C)C)-c1c(-c3cccs3)cc(C(=O)N(C)C(C)(C)C)n1CC2` [Example 51, 9-Isopropylamino-8-methoxy-1-thiophen-2-yl-5,6-dihydro-pyrrolo[2,1-α]isoquinoline-3-carboxylic acid tert-butyl-methyl-amide], for which the EC50 was 4.2 nM.

Turning to `COc1cc2c(cc1O)-c1c(-c3cccs3)cc(C(=O)N(C)C(C)(C)C)n1CC2` [Example 52, 9-Hydroxy-8-methoxy-1-thiophen-2-yl-5,6-dihydro-pyrrolo[2,1-α]isoquinoline-3-carboxylic acid tert-butyl-methyl-amide], a half-maximal response (EC50) required 356 nM.

Molecule `COc1cc2c(cc1N1CCN(C(C)=O)CC1)-c1c(-c3cccs3)cc(C(=O)N(C)C(C)(C)C)n1CC2` [Example 53, 9-(4-Acetyl-piperazin-1-yl)-8-methoxy-1-thiophen-2-yl-5,6-dihydro-pyrrolo[2,1-α]isoquinoline-3-carboxylic acid tert-butyl-methyl-amide] yielded an EC50 of 678 nM.

The molecule `COc1cc2c(cc1N1CCN(C)CC1)-c1c(-c3cccs3)cc(C(=O)N(C)C(C)(C)C)n1CC2` [Example 54, 8-Methoxy-9-(4-methyl-piperazin-1-yl)-1-thiophen-2-yl-5,6-dihydro-pyrrolo[2,1-α]isoquinoline-3-carboxylic acid tert-butyl-methyl-amide] showed an EC50 of 455 nM.

Molecule `COc1cc2c(cc1-c1cn[nH]c1)-c1c(-c3cccs3)cc(C(=O)N(C)C(C)(C)C)n1CC2` [Example 55, 8-Methoxy-9-(1H-pyrazol-4-yl)-1-thiophen-2-yl-5,6-dihydro-pyrrolo[2,1-α]isoquinoline-3-carboxylic acid tert-butyl-methyl-amide] displayed an EC50 of 1.1 nM.

In turn, `COc1cc2c(cc1N1CCOCC1)-c1c(-c3cccs3)cc(C(=O)N(C)C(C)(C)C)n1CC2` [Example 56, 8-Methoxy-9-morpholin-4-yl-1-thiophen-2-yl-5,6-dihydro-pyrrolo[2,1-α]isoquinoline-3-carboxylic acid tert-butyl-methyl-amide] yielded an EC50 of 15.7 nM.
